# Measured values: patent publication US10076519B2 (CYTOKINETICS, INC., priority 2010, dated 2018)
# Test system: rabbit skeletal myofibrils (fast skeletal myofibrils)
# Experiment: Activation of fast skeletal myofibrils (PUMA assay, PK/LDH-coupled ATPase at pCa25)
# Assay type: biochemical
# Conditions: AC1.4 determined according to the procedure of Example 39; reported as class symbols
# Method in brief: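 Detergent-washed rabbit psoas myofibrils (~90% fast fibres, calcium-regulated) assayed at calcium giving 25% of maximal ATPase rate (pCa25). ADP turnover coupled via pyruvate kinase/lactate dehydrogenase to NADH oxidation, read at 340 nm. Buffer 12 mM PIPES, 2 mM MgCl2, 1 mM DTT, pH 6.8; AC1.4 values derived.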
row,SMILES,Mean AC1.4
1,CC(=O)Nc1n[nH]c2ccc(-c3ccc(NCC(C)(C)c4ccc(F)cc4)nn3)cc12 [N-[5-(6-{[2-(4-fluorophenyl)-2-methylpropyl]amino}pyridazin-3-yl)-1H-indazol-3-yl]acetamide],A (A=<1 uM)
2,COC(=O)NCc1ccc(NCC(C)(C)c2ccc(F)cc2)nn1 [N-[(6-{[2-(4-fluorophenyl)-2-methylpropyl]amino}pyridazin-3-yl)methyl]methoxycarboxamide],D (D=>20 uM)
3,CC(C)(C)OC(=O)NCCCNC(=O)c1cccc(-c2ccc(NCC(C)(C)c3ccc(F)cc3)nn2)c1 [N-{3-[(tert-butoxy)carbonylamino]propyl}[3-(6-{[2-(4-fluorophenyl)-2-methylpropyl]amino}pyridazin-3-yl)phenyl]carboxamide],B (B=1-10 uM)
4,CC(=O)NCc1ccc(-c2ccc(NCC(C)(C)c3ccc(F)cc3)nn2)cn1 [N-{[5-(6-{[2-(4-fluorophenyl)-2-methylpropyl]amino}pyridazin-3-yl)-2-pyridyl]methyl}acetamide],C (C=10-20 uM)
5,CC(C)(CNc1ccc(-c2cccnc2)nn1)c1ccccc1Cl [[2-(2-chlorophenyl)-2-methylpropyl](6-(3-pyridyl)pyridazin-3-yl)amine],B (B=1-10 uM)
6,CC(C)(CNc1ccc(-c2cncnc2)nn1)c1ccccc1Cl [[2-(2-chlorophenyl)-2-methylpropyl](6-pyrimidin-5-ylpyridazin-3-yl)amine],B (B=1-10 uM)
7,CC(C)(CNc1ccc(-c2ccccn2)nn1)c1ccc(F)cc1 [[2-(4-fluorophenyl)-2-methylpropyl](6-(2-pyridyl)pyridazin-3-yl)amine],B (B=1-10 uM)
8,"CC(C)(CNc1ccc(C2=CCNCC2)nn1)c1ccc(F)cc1 [[2-(4-fluorophenyl)-2-methylpropyl](6-(4-1,2,5,6-tetrahydropyridyl)pyridazin-3-yl)amine]",B (B=1-10 uM)
9,CC(C)(CNc1ccc(-c2ccccc2)nn1)c1ccc(F)cc1 [[2-(4-fluorophenyl)-2-methylpropyl](6-phenylpyridazin-3-yl)amine],A (A=<1 uM)
10,CC(C)(CNc1ccc(-c2cc[nH]n2)nn1)c1ccc(F)cc1 [[2-(4-fluorophenyl)-2-methylpropyl](6-pyrazol-3-ylpyridazin-3-yl)amine],B (B=1-10 uM)
11,"CC(C)(CNc1ccc(-c2cnc3[nH]ncc3c2)nn1)c1ccc(F)cc1 [[2-(4-fluorophenyl)-2-methylpropyl](6-pyrazolo[5,4-b]pyridin-5-ylpyridazin-3-yl)amine]",B (B=1-10 uM)
12,"CC(C)(CNc1ccc(-c2cnc3cc[nH]c3c2)nn1)c1ccc(F)cc1 [[2-(4-fluorophenyl)-2-methylpropyl](6-pyrrolo[3,2-b]pyridin-6-ylpyridazin-3-yl)amine]",A (A=<1 uM)

# Results, then the compound that gave them:
row,Mean AC1.4,SMILES
1,C (C=10-20 uM),CC(=O)Nc1nc(-c2ccc(NCC(C)(C)c3ccc(F)cc3)nn2)c[nH]1 [N-[4-(6-{[2-(4-fluorophenyl)-2-methylpropyl]amino}pyridazin-3-yl)imidazol-2-yl]acetamide]
2,A (A=<1 uM),COC(=O)Nc1n[nH]c2ccc(-c3ccc(NCC(C)(C)c4ccc(F)cc4)nn3)cc12 [N-[5-(6-{[2-(4-fluorophenyl)-2-methylpropyl]amino}pyridazin-3-yl)(1H-indazol-3-yl)]methoxycarboxamide]
3,B (B=1-10 uM),CC(=O)Nc1ccc(-c2ccc(NCC(C)(C)c3ccc(F)cc3)nn2)cn1 [N-[5-(6-{[2-(4-fluorophenyl)-2-methylpropyl]amino}pyridazin-3-yl)-2-pyridyl]acetamide]
4,A (A=<1 uM),CC(=O)Nc1nc2cc(-c3ccc(NCC(C)(C)c4ccc(F)cc4)nn3)ccc2[nH]1 [N-[6-(6-{[2-(4-fluorophenyl)-2-methylpropyl]amino}pyridazin-3-yl)benzimidazol-2-yl]acetamide]
5,B (B=1-10 uM),CC(C)(CNc1ccc(-c2cccnc2)nn1)c1ccc(F)cc1 [[2-(4-fluorophenyl)-2-methylpropyl](6-(3-pyridyl)pyridazin-3-yl)amine]
6,B (B=1-10 uM),CC(C)(CNc1ccc(-c2cn[nH]c2)nn1)c1ccc(F)cc1 [[2-(4-fluorophenyl)-2-methylpropyl](6-pyrazol-4-ylpyridazin-3-yl)amine]
7,A (A=<1 uM),"CC(C)(CNc1ccc(-c2ccc3[nH]nc(NCC(F)(F)F)c3c2)nn1)c1ccc(F)cc1 [[2-(4-fluorophenyl)-2-methylpropyl](6-{3-[(2,2,2-trifluoroethyl)amino](1H-indazol-5-yl)}pyridazin-3-yl)amine]"

# Same assay, conditions: median AC1.4 class, procedure of Example 39
row,Mean AC1.4,SMILES
1,A (A=<1 uM),"CC(=O)NCc1cnc(-c2ccc(NCC3(c4ncccc4F)CCC3)nn2)s1 [N-({2-[6-({[(3-fluoro-2-pyridyl)cyclobutyl]methyl}ami-no)pyridazin-3-yl]-1,3-thiazol-5-yl}methyl)acetamide]"
2,C (C=10-20 uM),CC(=O)Nc1nccc(-c2ccc(NCC3(c4ncccc4F)CCC3)nn2)n1 [N-{4-[6-({[(3-fluoro-2-pyridyl)cyclobutyl]methyl}ami-no)pyridazin-3-yl]pyrimidin-2-yl}acetamide]

# Same assay, conditions: median AC1.4 reported as class; procedure of Example 39
row,SMILES,Mean AC1.4
1,CC(=O)NCc1cccc(-c2ccc(NC[C@]3(c4ncccc4F)C[C@H](F)C3)nn2)c1 [N-({3-[6-({[3-fluoro-1-(3-fluoro(2-pyridyl))cyclobutyl]methyl}ami-no)pyridazin-3-yl]phenyl}methyl)acetamide],B (B=1-10 uM)
2,"CC(=O)NCc1nc(-c2ccc(NCC3(c4ncccc4F)CCC3)nn2)cs1 [N-({4-[6-({[(3-fluoro-2-pyridyl)cyclobutyl]methyl}ami-no)pyridazin-3-yl]-1,3-thiazol-2-yl}methyl)acetamide]",D (D=>20 uM)
3,"NC(=O)Cc1csc(NC(=O)c2ccc(NCC3(c4ncccc4F)CCC3)nn2)n1 [N-[4-(carbamoylmethyl)(1,3-thiazol-2-yl)][6-({[(3-fluoro(2-pyridyl))cyclobutyl]methyl}ami-no)pyridazin-3-yl]carboxamide]",A (A=<1 uM)
4,"NC(=O)Cc1nnc(NC(=O)c2ccc(NCC3(c4ncccc4F)CCC3)nn2)s1 [N-[5-(carbamoylmethyl)(1,3,4-thiadiazol-2-yl)][6-({[(3-fluoro(2-pyridyl))cyclobutyl]methyl}ami-no)pyridazin-3-yl]carboxamide]",D (D=>20 uM)
5,O=C(NC1CNC1)c1cccc(-c2ccc(NC[C@]3(c4ncccc4F)C[C@H](F)C3)nn2)c1 [N-azetidin-3-yl{3-[6-({[3-fluoro-1-(3-fluoro(2-pyridyl))cyclobutyl]methyl}ami-no)pyridazin-3-yl]phenyl}carboxamide],B (B=1-10 uM)
6,O=C(NC1CCC1)c1ccc(F)c(-c2ccc(NC[C@]3(c4ncccc4F)C[C@H](F)C3)nn2)c1 [N-cyclobutyl{4-fluoro-3-[6-({[3-fluoro-1-(3-fluoro(2-pyridyl))cyclobutyl]methyl}ami-no)pyridazin-3-yl]phenyl}carboxamide],A (A=<1 uM)
7,O=C(NC1CC1)c1ccc(F)c(-c2ccc(NC[C@]3(c4ncccc4F)C[C@H](F)C3)nn2)c1 [N-cyclopropyl{4-fluoro-3-[6-({[3-fluoro-1-(3-fluoro(2-pyridyl))cyclobutyl]methyl}ami-no)pyridazin-3-yl]phenyl}carboxamide],A (A=<1 uM)
8,CCNC(=O)c1ccc(F)c(-c2ccc(NC[C@]3(c4ncccc4F)C[C@H](F)C3)nn2)c1 [N-ethyl{4-fluoro-3-[6-({[3-fluoro-1-(3-fluoro(2-pyridyl))cyclobutyl]methyl}ami-no)pyridazin-3-yl]phenyl}carboxamide],B (B=1-10 uM)
9,"COC(=O)NC1CCc2sc(-c3ccc(NCC4(c5ncccc5F)CCC4)nn3)nc21 (stereo not shown) [N-{2-[6-({[(3-fluoro(2-pyridyl))cyclobutyl]methyl}ami-no)pyridazin-3-yl](4,5,6-trihydrocyclopenta[2,3-d]1,3-thiazol-4-yl)}methoxycarboxamide]",D (D=>20 uM)
10,CNC(=O)Nc1ccc(-c2ccc(NC[C@]3(c4ncccc4F)C[C@H](F)C3)nn2)cc1 [N-{4-[6-({[3-fluoro-1-(3-fluoro(2-pyridyl))cyclobutyl]methyl}ami-no)pyridazin-3-yl]phenyl}(methylamino)carbox-amide],A (A=<1 uM)
11,CNC(=O)N(C)c1ccc(-c2ccc(NC[C@]3(c4ncccc4F)C[C@H](F)C3)nn2)cc1 [N-{4-[6-({[3-fluoro-1-(3-fluoro(2-pyridyl))cyclobutyl]methyl}ami-no)pyridazin-3-yl]phenyl}-N-methyl(methylamino)carboxamide],D (D=>20 uM)

# The remaining lines, values ahead:
row,Mean AC1.4,SMILES
1,B (B=1-10 uM),CC(=O)NCc1ccc(F)c(-c2ccc(NC[C@]3(c4ncccc4F)C[C@H](F)C3)nn2)c1 [N-({4-fluoro-3-[6-({[3-fluoro-1-(3-fluoro(2-pyridyl))cyclobutyl]methyl}ami-no)pyridazin-3-yl]phenyl}methyl)acetamide]
2,B (B=1-10 uM),"CC(=O)NCc1ncc(-c2ccc(NCC3(c4ncccc4F)CCC3)nn2)s1 [N-({5-[6-({[(3-fluoro-2-pyridyl)cyclobutyl]methyl}ami-no)pyridazin-3-yl]-1,3-thiazol-2-yl}methyl)acetamide]"
3,B (B=1-10 uM),O=C(NC1CC1)c1cccc(-c2ccc(NC[C@]3(c4ncccc4F)C[C@H](F)C3)nn2)c1 [N-cyclopropyl{3-[6-({[3-fluoro-1-(3-fluoro(2-pyridyl))cyclobutyl]methyl}ami-no)pyridazin-3-yl]phenyl}carboxamide]
4,C (C=10-20 uM),CCNC(=O)c1cc(-c2ccc(NC[C@]3(c4ncccc4F)C[C@H](F)C3)nn2)ccc1F [N-ethyl{2-fluoro-5-[6-({[3-fluoro-1-(3-fluoro(2-pyridyl))cyclobutyl]methyl}ami-no)pyridazin-3-yl]phenyl}carboxamide]
5,A (A=<1 uM),CNC(=O)Nc1ccc(-c2ccc(NC[C@]3(c4ncccc4F)C[C@H](F)C3)nn2)c(F)c1 [N-{3-fluoro-4-[6-({[3-fluoro-1-(3-fluoro(2-pyridyl))cyclobutyl]methyl}ami-no)pyridazin-3-yl]phenyl}(methylamino)carbox-amide]
